The values below come from ChEMBL document CHEMBL1132245, “Novel and potent 6-chloro-3-pyridinyl ligands for the alpha4beta2 neuronal nicotinic acetylcholine receptor” (J Med Chem, 1999).

Molecules are shown by their SMILES. pIC50: −log10 of the molar value.

Type in all cases: protein-complex assay
The target of assay [1] is T1, Neuronal acetylcholine receptor; alpha4/beta2 (Rattus norvegicus, UniProt P09483+P12390). As to the kind of experiment: Inhibition of [3H](-)-nicotine binding to recombinant rat alpha4-beta2 nAChR.
T1 sequence (P09483 whole entry): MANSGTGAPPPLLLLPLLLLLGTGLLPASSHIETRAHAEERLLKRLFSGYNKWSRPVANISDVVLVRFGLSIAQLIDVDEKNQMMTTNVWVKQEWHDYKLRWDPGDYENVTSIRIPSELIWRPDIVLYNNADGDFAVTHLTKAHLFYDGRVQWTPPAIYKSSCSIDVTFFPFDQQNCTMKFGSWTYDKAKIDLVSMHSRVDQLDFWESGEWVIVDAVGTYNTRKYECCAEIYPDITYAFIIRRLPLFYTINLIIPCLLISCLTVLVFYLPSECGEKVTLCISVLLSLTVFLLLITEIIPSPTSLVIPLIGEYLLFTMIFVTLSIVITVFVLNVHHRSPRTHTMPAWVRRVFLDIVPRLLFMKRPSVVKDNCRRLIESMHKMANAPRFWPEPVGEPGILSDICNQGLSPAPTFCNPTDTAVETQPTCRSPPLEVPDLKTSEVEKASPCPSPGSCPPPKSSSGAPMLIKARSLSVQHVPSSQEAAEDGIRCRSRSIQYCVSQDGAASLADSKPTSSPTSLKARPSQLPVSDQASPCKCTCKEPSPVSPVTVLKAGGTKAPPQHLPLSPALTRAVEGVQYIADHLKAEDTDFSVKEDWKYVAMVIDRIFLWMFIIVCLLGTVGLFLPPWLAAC
T1 sequence (P12390 whole entry): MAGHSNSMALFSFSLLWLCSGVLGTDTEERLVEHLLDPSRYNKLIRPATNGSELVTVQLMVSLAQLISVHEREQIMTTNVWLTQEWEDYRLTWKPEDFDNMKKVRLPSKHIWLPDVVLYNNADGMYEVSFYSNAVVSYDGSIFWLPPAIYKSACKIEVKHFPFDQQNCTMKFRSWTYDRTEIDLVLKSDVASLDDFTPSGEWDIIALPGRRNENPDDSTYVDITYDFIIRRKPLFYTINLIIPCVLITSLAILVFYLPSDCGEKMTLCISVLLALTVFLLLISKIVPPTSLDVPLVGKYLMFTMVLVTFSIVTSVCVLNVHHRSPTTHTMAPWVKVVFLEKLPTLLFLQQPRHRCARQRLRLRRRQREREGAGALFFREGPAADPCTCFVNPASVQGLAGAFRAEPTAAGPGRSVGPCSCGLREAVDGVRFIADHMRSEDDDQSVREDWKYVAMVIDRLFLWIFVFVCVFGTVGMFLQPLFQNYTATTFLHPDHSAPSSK
For assay [2], the target named is T1, Neuronal acetylcholine receptor; alpha4/beta2. Put plainly: Inhibition of [3H](-)-nicotine binding to recombinant rat alpha4-beta2 nAChR was determined; experiment 2.
The target is the same in assay [3]. Put plainly: Inhibition of [3H](-)-nicotine binding to recombinant rat alpha4-beta2 nAChR was determined; experiment 1.

As to `Clc1ccc(Cn2ccnc2)cn1`, the pIC50 in assay [1] is 6.35.

Regarding `NC1=NCCCS1`, in assay [1], the negative-log IC50 (pIC50) was 3.80. Turning to `Clc1ccc(CN2CCN(Cc3ccc(Cl)nc3)CC2)cn1`, the values for the negative-log IC50 (pIC50) in assay [2] and in assay [3] were 5.78 and 5.76, respectively. The like results for `SC1=NCCN1Cc1ccc(Cl)nc1` were, in that order, 4.87 and 4.90. The corresponding values for `NC1=NCCO1` are 4.02 and 4.00.

As for `CN1CCCC1c1ccc(Cl)nc1` (stereo not drawn), the pIC50 in assay [1] was 8.72. Consider `CN1CCCC1c1cccnc1Cl` (stereo not drawn), for which the pIC50 in assay [1] is 5.49. The same measure, in the same setting: the figure for `O=C1NCCN1Cc1ccc(Cl)nc1` is 5.09; for `CCN(Cc1ccc(Cl)nc1)C(=N)NC` it is 5.48; for `N=C1NCCN1Cc1ccc(Cl)nc1` [DESNITROIMIDACLOPRID] it is 8.22.

As usually defined, the pIC50 is the negative decadic logarithm of the IC50, by convention in mol/L.
